Among the data in article PMC5341070, “Small molecule inhibitors block Gas6-inducible TAM activation and tumorigenicity” (Scientific Reports, 2017) are percent of control binding and remaining binding values, retold here.

Structures are written as SMILES.

What all share (experiment): biochemical
Common to all, as to design: KINOMEscan (DiscoverX) competition binding screen of 97 human kinases, percent of control at 10 uM

One test deals with ACVR1B (Homo sapiens, UniProt P36896). Here is the method: (§1) The KINOMEscan profiling of the inhibitors were performed as per directions by the manufacturer (DiscoverX) against a panel of human protein kinases.
A further test deals with AURKB (Homo sapiens, UniProt Q96GD4). The protocol: as §1
A further test concerns the target BTK (Homo sapiens, UniProt Q06187). Here is the method: as §1
In a further test the target is ERBB4 (Homo sapiens, UniProt Q15303). The protocol:
as §1

The target in another test is T1, FAK (Homo sapiens, UniProt Q05397).
T1 construct: gene PTK2
The protocol: as §1

For the next test, the target named is GSK3B (Homo sapiens, UniProt P49841). Here is the method:
as §1

Test [1] addresses T2, JAK3(JH1domain-catalytic) (Homo sapiens, UniProt P52333).
T2 construct: JH1domain-catalytic
The protocol: as §1

The next test has as its target T3, JNK3 (Homo sapiens, UniProt P53779).
T3 construct: gene MAPK10
The protocol:
as §1

Another test deals with KIT(V559D,T670I) (Homo sapiens, UniProt P10721, T670I/V559D). Here is the method:
as §1

A further test concerns the target MAP3K4 (Homo sapiens, UniProt Q9Y6R4). The protocol: as §1
A further test concerns the target MARK3 (Homo sapiens, UniProt P27448). Here is the method: as §1
The next test concerns the target T4, MEK2 (Homo sapiens, UniProt P36507).
T4 construct: gene MAP2K2
Here is the method:
as §1

For another test, the target named is MKNK1 (Homo sapiens, UniProt Q9BUB5). Here is the method: as §1
In a further test the target is PAK1 (Homo sapiens, UniProt Q13153). The protocol:
as §1

Another test deals with PAK4 (Homo sapiens, UniProt O96013). The protocol: as §1
The target of the next test is T5, PCTK1 (Homo sapiens, UniProt Q00536).
T5 construct: gene CDK16
Here is the method:
as §1

The target of a further test is PIK3CA (Homo sapiens, UniProt P42336). The protocol: as §1
The target in the next test is PIM3 (Homo sapiens, UniProt Q86V86). The protocol: as §1
The target in the next test is PRKCE (Homo sapiens, UniProt Q02156). Here is the method: as §1
Another test concerns the target ROCK2 (Homo sapiens, UniProt O75116). The protocol:
as §1

The target in test [2] is T6, RSK2(Kin.Dom.1-N-terminal) (Homo sapiens, UniProt P51812).
T6 construct: gene RPS6KA3; Kin.Dom.1-N-terminal
The protocol:
as §1

The target in a further test is TGFBR1 (Homo sapiens, UniProt P36897). The protocol:
as §1

Another test has as its target TSSK1B (Homo sapiens, UniProt Q9BXA7). The protocol:
as §1

Where [3] appears, read: read-out: R428 %Ctrl @ 10000nM, binding competition.
Setting [4] is: binding competition, % of control, read-out: RU-301 %Ctrl @ 10000nM.

T2 sequence (P52333 whole entry): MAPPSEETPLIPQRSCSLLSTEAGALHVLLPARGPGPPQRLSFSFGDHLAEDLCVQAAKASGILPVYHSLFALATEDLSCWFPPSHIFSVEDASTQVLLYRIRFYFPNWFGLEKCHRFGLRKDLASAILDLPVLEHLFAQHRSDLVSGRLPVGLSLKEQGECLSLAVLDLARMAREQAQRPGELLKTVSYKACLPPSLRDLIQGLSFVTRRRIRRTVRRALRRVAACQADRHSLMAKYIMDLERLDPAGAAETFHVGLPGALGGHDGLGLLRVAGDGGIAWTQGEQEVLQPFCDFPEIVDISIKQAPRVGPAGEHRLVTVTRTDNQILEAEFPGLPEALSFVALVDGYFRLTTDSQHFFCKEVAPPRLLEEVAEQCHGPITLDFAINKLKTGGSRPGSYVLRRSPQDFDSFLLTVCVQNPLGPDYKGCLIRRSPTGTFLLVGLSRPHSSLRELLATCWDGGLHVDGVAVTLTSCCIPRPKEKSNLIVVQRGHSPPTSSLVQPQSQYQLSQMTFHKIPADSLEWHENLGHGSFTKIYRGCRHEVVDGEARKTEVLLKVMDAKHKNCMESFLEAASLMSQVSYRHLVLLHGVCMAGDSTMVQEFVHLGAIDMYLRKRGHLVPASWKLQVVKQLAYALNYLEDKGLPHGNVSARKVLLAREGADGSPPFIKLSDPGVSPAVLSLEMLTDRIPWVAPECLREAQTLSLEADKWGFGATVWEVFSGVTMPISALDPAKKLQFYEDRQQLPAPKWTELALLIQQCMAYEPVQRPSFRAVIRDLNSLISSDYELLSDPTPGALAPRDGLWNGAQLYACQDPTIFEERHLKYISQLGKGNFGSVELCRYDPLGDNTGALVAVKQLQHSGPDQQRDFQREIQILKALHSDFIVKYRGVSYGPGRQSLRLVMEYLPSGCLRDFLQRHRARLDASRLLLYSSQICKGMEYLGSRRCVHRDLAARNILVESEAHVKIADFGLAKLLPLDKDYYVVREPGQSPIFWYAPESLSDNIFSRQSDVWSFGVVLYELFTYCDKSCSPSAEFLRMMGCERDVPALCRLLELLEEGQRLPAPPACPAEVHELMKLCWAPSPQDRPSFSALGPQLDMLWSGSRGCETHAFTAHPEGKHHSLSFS
T3 sequence (P53779 whole entry): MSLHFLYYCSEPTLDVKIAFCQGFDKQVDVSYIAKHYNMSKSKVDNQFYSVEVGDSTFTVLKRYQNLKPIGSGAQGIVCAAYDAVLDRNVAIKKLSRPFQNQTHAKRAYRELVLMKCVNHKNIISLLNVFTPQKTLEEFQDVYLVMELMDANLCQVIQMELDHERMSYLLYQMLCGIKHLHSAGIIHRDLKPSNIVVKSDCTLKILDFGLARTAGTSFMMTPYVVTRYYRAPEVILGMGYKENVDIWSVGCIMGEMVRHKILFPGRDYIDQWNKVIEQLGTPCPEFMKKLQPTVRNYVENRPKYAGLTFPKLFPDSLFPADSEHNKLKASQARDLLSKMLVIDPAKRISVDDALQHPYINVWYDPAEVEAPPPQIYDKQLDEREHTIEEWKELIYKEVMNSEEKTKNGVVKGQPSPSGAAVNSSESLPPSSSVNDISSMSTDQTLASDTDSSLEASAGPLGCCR
T5 sequence (Q00536 whole entry): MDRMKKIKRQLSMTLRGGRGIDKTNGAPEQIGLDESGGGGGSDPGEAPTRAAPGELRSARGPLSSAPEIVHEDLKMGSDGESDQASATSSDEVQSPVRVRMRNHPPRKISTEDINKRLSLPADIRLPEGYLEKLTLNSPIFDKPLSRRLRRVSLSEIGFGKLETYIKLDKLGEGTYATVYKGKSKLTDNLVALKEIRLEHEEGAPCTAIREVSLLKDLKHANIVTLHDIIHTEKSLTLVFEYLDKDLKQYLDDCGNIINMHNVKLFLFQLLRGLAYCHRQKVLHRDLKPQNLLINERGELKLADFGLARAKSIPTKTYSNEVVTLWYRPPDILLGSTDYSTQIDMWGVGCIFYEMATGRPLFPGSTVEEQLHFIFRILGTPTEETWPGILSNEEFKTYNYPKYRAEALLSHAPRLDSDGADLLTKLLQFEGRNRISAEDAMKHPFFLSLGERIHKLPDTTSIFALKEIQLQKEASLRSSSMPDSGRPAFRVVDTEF
Chain of TSSK1B (Q9BXA7 whole entry): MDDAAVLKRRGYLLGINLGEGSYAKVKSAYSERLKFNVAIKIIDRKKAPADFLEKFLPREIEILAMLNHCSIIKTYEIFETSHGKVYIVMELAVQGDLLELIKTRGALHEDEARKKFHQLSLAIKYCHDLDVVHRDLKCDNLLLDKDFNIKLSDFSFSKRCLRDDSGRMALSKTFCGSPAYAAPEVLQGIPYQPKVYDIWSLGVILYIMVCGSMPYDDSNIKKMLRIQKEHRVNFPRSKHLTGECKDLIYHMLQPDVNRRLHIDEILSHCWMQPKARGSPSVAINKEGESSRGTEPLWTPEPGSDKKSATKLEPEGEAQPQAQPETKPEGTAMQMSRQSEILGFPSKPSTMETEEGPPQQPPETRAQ
Chain of ERBB4 (Q15303 whole entry): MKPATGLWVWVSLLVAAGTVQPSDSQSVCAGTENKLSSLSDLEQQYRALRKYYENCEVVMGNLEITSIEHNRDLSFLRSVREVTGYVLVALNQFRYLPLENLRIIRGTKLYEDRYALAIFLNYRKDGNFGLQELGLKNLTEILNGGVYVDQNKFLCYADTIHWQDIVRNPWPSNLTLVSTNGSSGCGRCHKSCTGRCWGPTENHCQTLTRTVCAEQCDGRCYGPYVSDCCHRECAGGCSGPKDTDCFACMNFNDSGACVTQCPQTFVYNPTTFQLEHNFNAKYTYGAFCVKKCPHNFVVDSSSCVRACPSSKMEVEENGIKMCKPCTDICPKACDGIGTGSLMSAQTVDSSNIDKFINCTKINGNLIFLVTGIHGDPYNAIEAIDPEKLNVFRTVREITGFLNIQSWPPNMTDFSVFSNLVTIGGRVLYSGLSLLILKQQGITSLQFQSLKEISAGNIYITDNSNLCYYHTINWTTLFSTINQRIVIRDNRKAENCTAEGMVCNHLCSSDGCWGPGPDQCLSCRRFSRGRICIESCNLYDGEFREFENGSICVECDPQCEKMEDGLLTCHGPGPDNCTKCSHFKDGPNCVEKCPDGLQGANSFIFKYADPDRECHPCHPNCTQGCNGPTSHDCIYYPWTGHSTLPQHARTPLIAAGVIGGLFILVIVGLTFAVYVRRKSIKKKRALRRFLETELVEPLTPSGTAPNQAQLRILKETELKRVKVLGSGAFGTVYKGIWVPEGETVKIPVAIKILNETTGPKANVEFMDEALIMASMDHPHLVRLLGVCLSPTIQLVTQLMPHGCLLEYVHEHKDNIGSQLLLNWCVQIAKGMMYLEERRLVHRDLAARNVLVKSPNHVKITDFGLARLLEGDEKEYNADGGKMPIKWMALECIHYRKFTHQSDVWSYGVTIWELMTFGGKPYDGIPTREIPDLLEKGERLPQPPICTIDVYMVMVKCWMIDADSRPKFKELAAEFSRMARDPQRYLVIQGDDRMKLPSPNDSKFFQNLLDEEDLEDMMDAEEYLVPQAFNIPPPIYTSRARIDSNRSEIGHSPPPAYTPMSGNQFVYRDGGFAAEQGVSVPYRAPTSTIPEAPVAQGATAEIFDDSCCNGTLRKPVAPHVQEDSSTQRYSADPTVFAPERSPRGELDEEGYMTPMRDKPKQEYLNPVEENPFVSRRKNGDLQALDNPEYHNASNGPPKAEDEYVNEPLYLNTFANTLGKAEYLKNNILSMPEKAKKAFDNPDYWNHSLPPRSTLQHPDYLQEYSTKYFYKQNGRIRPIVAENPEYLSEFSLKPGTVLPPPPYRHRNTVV
Chain of MKNK1 (Q9BUB5 whole entry): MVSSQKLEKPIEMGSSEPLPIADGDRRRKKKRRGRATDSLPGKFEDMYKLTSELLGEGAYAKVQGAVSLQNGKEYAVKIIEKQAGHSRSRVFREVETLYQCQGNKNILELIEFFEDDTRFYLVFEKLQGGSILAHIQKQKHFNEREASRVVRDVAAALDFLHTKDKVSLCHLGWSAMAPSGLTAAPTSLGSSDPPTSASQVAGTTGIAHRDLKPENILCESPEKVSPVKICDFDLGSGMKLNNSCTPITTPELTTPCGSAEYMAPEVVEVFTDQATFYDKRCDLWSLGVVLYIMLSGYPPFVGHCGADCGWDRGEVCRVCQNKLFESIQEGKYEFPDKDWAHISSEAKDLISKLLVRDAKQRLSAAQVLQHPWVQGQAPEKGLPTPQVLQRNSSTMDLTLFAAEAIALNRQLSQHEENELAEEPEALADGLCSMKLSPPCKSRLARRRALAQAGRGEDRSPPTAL
Chain of AURKB (Q96GD4 whole entry): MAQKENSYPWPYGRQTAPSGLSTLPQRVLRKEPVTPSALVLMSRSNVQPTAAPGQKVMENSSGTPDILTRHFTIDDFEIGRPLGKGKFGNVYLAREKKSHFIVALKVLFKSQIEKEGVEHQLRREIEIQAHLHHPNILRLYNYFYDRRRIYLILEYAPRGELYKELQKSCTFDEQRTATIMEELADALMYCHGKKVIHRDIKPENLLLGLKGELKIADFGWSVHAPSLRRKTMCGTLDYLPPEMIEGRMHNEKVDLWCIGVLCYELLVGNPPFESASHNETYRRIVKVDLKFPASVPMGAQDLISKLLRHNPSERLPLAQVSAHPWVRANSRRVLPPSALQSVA

With `Nc1nc(Nc2ccc3c(c2)CC[C@@H](N2CCCC2)CC3)nn1-c1cc2c(nn1)-c1ccccc1CCC2` [R428], the percent of control binding at 10 µM at ACVR1B (setting [3]) came to 26%; on AURKB (setting [3]) it was 0.45%; at BTK (setting [3]), 31%; on ERBB4 (setting [3]), 34%; at FAK (setting [3]) it was 83%; on GSK3B (setting [3]) it was 74%. The percent of control binding at 10 µM worked out at 0.2% in test [1] (setting [3]); 46% on JNK3 (setting [3]); 0.05% at KIT(V559D,T670I) (setting [3]); 0.7% at MAP3K4 (setting [3]); 49% on MARK3 (setting [3]); 0.2% on MEK2 (setting [3]). In addition, the percent of control binding at 10 µM on MKNK1 (setting [3]) was 19%; at PAK1 (setting [3]), 74%; at PAK4 (setting [3]) it was 85%; at PCTK1 (setting [3]), 90%; on PIK3CA (setting [3]) it was 45%; on PIM3 (setting [3]), 84%. In addition, the percent of control binding at 10 µM at PRKCE (setting [3]) came to 24%; on ROCK2 (setting [3]), 3%; in [2] (setting [3]) it was 2.1%; at TGFBR1 (setting [3]), 75%; on TSSK1B (setting [3]), 22%.

Turning to `Cc1cc(CSc2ccccc2C(=O)NCCNc2ccc(C(F)(F)F)cc2[N+](=O)[O-])on1` [RU-301], the remaining binding at 10 µM at ACVR1B (setting [4]) was found to be 96%; on AURKB (setting [4]), 73%; on BTK (setting [4]), 100%; on ERBB4 (setting [4]), 83%; on FAK (setting [4]) it was 100%; on GSK3B (setting [4]), 98%. Further, the remaining binding at 10 µM in test [1] (setting [4]) was 95%; at JNK3 (setting [4]), 100%; at KIT(V559D,T670I) (setting [4]) it was 85%; on MAP3K4 (setting [4]) it was 100%; at MARK3 (setting [4]), 87%; on MEK2 (setting [4]), 71%. The remaining binding at 10 µM at MKNK1 (setting [4]) is 78%; on PAK1 (setting [4]) it was 97%; at PAK4 (setting [4]), 93%; on PCTK1 (setting [4]) it was 100%; at PIK3CA (setting [4]) it was 100%; on PIM3 (setting [4]) it was 86%. Also, the remaining binding at 10 µM on PRKCE (setting [4]) amounted to 91%; on ROCK2 (setting [4]) it was 75%; in test [2] (setting [4]), 74%; at TGFBR1 (setting [4]), 100%; on TSSK1B (setting [4]), 78%.
